Data as given in ChEMBL document CHEMBL1145679, “Perhydrogenation of tabersonine, ans Aspidiosperma indole alkaloid” (J Nat Prod, 1997).
Activity calls are given as the source filed them. No cut-off for these calls is given here.

Assays:
[1] = Displacement of radioligand from rat sodium channel batrachotoxin binding site by liquid scintillation spectrometry
[2] = Displacement of radioligand from GABAA receptor by liquid scintillation spectrometry
[3] = biological target: 5-hydroxytryptamine receptor 2A (Homo sapiens, UniProt P28223); assay: Displacement of radioligand from 5HT2 receptor by liquid scintillation spectrometry
Chain of 5-hydroxytryptamine receptor 2A (P28223 whole entry): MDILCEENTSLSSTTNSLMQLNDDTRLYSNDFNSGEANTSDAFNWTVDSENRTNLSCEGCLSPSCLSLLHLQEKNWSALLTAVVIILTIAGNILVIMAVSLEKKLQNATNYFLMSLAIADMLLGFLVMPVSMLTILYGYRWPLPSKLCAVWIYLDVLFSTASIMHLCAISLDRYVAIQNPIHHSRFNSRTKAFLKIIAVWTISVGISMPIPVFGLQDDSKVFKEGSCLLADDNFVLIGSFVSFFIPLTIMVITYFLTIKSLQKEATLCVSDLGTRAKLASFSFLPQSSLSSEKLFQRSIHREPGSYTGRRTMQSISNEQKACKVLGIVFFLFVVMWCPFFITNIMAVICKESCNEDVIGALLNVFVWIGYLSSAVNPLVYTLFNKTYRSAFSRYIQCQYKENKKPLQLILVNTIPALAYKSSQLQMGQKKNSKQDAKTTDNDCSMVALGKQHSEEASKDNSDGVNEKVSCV

[4] = biological target: T1, Glucocorticoid receptor (Homo sapiens) (UniProt P04150); assay: Displacement of radioligand from glucocorticoid receptor by liquid scintillation spectrometry
T1 sequence (whole entry): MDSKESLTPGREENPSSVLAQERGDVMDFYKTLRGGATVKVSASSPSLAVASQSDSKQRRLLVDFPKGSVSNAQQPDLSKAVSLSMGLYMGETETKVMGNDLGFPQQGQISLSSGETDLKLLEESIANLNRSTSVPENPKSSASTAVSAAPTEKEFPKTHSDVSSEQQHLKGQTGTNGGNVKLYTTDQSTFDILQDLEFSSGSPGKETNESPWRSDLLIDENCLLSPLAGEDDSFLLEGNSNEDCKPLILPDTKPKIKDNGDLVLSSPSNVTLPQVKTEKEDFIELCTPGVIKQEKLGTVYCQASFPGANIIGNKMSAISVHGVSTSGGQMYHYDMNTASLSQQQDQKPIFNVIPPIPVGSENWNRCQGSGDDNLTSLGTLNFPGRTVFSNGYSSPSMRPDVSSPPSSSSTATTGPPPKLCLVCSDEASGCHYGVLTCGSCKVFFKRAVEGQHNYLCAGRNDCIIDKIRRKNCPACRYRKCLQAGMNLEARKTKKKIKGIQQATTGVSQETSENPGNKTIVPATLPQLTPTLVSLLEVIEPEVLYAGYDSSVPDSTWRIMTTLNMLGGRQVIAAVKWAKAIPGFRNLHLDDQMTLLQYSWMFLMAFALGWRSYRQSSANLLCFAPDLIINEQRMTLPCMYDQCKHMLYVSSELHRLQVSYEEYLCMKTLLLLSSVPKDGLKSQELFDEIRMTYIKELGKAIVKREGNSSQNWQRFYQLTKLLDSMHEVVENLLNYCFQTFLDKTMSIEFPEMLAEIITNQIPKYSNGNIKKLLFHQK

[5] = Displacement of radioligand from calcium channel by liquid scintillation spectrometry
[6] = biological target: D(2) dopamine receptor (Homo sapiens) (UniProt P14416); assay: Displacement of radioligand from dopamine D2 receptor by liquid scintillation spectrometry
Chain of D(2) dopamine receptor (Homo sapiens) (P14416 whole entry): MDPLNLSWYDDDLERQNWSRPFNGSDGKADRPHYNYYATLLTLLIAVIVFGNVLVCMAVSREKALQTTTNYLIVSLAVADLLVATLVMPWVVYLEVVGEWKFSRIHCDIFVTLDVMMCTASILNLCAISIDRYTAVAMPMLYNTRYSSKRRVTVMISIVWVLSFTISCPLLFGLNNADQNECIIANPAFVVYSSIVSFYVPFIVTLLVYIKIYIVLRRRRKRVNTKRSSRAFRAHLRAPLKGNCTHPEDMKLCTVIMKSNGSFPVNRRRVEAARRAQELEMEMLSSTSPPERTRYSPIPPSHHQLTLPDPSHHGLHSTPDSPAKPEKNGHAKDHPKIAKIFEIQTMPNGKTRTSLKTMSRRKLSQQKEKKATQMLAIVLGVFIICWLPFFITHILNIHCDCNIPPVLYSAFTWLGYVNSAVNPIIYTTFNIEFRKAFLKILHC

[7] = biological target: T2, Adrenergic receptor alpha-2 (Rattus norvegicus, UniProt P22086+P19328+P22909); assay: Displacement of radioligand from rat alpha2 adrenergic receptor by liquid scintillation spectrometry
T2 sequence (P22086 whole entry): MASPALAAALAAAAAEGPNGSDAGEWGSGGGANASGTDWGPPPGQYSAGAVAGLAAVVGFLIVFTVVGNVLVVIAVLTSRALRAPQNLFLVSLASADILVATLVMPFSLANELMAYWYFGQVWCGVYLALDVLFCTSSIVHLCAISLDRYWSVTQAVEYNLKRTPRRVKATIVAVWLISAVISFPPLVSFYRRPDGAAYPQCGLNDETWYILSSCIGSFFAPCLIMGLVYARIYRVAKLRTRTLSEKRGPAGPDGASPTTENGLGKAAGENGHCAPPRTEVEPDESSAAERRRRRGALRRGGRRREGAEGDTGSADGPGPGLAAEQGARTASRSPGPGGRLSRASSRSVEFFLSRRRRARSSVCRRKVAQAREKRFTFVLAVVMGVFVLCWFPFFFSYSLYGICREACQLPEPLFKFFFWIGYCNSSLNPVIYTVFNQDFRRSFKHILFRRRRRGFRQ
T2 sequence (P19328 whole entry): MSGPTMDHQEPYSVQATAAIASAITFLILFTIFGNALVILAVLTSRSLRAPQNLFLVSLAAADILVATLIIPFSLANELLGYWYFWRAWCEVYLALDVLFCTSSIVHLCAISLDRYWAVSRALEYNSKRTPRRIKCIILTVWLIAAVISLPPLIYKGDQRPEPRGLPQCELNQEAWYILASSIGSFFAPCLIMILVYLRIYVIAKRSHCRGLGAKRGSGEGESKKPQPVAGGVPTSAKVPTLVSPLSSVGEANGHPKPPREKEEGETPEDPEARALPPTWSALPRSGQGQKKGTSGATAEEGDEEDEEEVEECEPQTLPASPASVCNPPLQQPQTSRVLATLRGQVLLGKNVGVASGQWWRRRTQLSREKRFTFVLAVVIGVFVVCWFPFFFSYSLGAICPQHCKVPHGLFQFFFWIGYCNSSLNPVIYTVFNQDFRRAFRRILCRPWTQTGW
T2 sequence (P22909 whole entry): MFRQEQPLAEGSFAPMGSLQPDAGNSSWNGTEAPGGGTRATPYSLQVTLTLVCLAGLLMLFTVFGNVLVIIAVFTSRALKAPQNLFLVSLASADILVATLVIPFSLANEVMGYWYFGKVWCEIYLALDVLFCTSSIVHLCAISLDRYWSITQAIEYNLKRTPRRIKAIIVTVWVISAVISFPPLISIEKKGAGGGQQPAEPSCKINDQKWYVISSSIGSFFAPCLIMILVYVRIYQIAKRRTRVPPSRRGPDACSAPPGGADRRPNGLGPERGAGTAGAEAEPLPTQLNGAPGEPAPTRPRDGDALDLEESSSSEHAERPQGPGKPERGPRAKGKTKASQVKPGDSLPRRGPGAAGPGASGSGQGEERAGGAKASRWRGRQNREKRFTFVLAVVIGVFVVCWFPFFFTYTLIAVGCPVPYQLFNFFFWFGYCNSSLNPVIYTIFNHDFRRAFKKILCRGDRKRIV

[8] = Displacement of radioligand from potassium channel by liquid scintillation spectrometry
[9] = biological target: D(1A) dopamine receptor (Homo sapiens) (UniProt P21728); assay: Displacement of radioligand from dopamine D1 receptor by liquid scintillation spectrometry
Chain of D(1A) dopamine receptor (Homo sapiens) (P21728 whole entry): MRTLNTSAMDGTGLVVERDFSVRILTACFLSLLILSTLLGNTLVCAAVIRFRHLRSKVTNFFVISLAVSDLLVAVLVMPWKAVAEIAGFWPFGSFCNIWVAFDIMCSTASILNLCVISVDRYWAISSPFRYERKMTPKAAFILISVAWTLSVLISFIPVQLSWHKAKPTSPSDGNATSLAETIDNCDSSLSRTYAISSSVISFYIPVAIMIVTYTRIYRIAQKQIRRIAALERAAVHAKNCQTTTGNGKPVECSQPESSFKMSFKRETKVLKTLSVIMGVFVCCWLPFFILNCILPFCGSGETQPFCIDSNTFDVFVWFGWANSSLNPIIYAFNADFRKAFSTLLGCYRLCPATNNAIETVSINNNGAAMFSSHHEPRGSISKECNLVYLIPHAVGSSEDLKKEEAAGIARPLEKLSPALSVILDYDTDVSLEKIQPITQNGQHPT

[10] = biological target: T3, 5-hydroxytryptamine receptor 3A (Homo sapiens, UniProt P46098); assay: Displacement of radioligand from 5HT3 receptor by liquid scintillation spectrometry
T3 sequence (P46098 whole entry): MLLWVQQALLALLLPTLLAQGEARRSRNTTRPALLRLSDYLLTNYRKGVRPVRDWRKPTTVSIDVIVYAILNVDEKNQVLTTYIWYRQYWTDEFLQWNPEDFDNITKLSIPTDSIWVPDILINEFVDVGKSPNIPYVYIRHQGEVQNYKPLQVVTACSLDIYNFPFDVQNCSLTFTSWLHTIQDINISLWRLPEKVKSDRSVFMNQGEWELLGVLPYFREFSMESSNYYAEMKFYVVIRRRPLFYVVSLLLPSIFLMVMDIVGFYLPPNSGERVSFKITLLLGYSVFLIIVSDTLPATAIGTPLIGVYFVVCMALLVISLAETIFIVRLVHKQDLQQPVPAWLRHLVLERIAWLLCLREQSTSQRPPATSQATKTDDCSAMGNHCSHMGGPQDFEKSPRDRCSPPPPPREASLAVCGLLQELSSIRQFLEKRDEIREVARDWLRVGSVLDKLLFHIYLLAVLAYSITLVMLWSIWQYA

[11] = Displacement of radioligand from NMDA receptor by liquid scintillation spectrometry
[12] = Displacement of radioligand from glycine receptor by liquid scintillation spectrometry
[13] = Displacement of radioligand from AMPA receptor by liquid scintillation spectrometry
[14] = Displacement of radioligand from muscarinic receptor by liquid scintillation spectrometry
[15] = biological target: T4, 5-hydroxytryptamine receptor 1A (Homo sapiens, UniProt P08908); assay: Displacement of radioligand from 5HT1A receptor by liquid scintillation spectrometry
T4 sequence (P08908 whole entry): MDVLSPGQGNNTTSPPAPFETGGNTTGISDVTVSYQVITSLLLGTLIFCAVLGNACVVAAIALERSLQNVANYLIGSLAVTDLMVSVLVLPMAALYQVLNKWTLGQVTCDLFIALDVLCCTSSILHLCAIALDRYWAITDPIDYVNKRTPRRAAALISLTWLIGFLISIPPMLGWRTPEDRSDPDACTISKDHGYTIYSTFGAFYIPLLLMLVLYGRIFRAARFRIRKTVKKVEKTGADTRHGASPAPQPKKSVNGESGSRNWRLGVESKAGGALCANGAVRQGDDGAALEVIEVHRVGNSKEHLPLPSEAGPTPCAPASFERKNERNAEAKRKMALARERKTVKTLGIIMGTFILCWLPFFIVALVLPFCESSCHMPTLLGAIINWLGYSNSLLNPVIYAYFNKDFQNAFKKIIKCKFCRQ

[16] = biological target: T5, Adrenergic receptor alpha-1 (Rattus norvegicus, UniProt P15823+P23944+P43140); assay: Displacement of radioligand from rat alpha1 adrenergic receptor by liquid scintillation spectrometry
T5 sequence (P15823 whole entry): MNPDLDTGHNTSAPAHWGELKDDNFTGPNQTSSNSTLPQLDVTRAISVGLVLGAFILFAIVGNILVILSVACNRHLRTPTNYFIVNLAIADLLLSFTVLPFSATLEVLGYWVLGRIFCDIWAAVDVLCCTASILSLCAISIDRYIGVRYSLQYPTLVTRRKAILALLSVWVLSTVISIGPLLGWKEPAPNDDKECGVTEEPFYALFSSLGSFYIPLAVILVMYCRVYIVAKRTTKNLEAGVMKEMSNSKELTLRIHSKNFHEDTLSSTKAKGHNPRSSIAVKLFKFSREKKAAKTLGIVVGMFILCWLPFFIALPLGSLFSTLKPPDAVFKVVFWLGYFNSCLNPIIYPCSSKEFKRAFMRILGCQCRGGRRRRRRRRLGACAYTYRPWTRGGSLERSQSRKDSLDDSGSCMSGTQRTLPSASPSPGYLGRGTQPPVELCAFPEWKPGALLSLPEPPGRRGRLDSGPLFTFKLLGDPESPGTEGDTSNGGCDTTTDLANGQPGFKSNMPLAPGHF
T5 sequence (P23944 whole entry): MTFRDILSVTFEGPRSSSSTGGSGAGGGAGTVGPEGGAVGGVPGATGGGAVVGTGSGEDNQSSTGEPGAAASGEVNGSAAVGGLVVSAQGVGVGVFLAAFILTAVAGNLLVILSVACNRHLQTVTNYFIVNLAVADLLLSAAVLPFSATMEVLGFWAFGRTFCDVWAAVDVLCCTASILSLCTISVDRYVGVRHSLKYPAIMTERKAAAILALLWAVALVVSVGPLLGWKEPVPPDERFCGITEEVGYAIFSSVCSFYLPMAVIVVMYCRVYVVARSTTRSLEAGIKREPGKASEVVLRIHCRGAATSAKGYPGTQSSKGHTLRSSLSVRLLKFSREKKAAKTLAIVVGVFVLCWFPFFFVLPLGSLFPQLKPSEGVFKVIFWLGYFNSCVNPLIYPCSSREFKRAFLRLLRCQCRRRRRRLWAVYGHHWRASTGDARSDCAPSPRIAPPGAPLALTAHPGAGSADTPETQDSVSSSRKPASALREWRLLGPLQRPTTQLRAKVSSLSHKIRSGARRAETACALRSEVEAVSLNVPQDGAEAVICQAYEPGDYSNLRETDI
T5 sequence (P43140 whole entry): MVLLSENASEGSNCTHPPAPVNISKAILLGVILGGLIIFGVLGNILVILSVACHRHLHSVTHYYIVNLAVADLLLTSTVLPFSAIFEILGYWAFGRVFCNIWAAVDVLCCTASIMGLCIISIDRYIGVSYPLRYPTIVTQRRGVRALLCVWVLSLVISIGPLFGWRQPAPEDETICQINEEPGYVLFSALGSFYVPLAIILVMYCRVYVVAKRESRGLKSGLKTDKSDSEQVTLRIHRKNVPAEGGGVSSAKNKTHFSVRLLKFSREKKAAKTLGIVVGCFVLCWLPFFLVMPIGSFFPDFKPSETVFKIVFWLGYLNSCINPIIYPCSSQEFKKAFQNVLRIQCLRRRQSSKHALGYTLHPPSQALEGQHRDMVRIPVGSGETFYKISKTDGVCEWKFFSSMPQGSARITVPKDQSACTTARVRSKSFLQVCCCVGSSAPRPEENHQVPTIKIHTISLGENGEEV

[17] = Displacement of radioligand from GABAB receptor by liquid scintillation spectrometry

Structure (SMILES) | Ki [1] [µM] | Activity [2] | IC50 [3] [µM] | Activity [4] | Activity [5] | Activity [6] | Ki [7] [µM] | Activity [8] | Activity [9] | IC50 [10] [µM] | Activity [11] | Activity [12] | Activity [13] | Activity [14] | IC50 [15] [µM] | Ki [16] [µM] | Activity [17]
COc1ccc(C(=O)O[C@H]2CC[C@@]3(C)[C@@H]4CC[C@H]5[C@]6(O)C[C@H](O)[C@@]7(O)[C@@H](CN8C[C@@H](C)CC[C@H]8[C@@]7(C)O)[C@]6(O)C[C@@]53O[C@]24O)cc1OC [VERATRIDINE] | 2.1 | – | – | – | – | – | – | – | – | – | – | – | – | – | – | – | –
CC[C@]12CCCN3CC[C@@]4([C@H]5CCCC[C@H]5N[C@H]4[C@@H](C(=O)[O-])C1)[C@@H]32.[Na+] | > 10 | inactive | > 10 | inactive | inactive | inactive | > 100 | inactive | inactive | > 100 | inactive | inactive | inactive | inactive | > 10 | > 100 | inactive
CC[C@]12CCCN3CC[C@@]4([C@H]5CCCC[C@H]5N[C@H]4[C@@H](C(=O)OC)C1)[C@@H]32.Cl.Cl | 3.7 | inactive | > 10 | inactive | inactive | inactive | > 100 | inactive | inactive | > 100 | inactive | inactive | inactive | inactive | > 10 | > 100 | inactive
